Assay results as given in patent US20240226059A1, “COMPOSITION FOR INHIBITING ANGIOGENESIS AND ENHANCING THERAPEUTIC EFFECT OF ANTICANCER DRUGS IN CANCER PATIENT” (KANT SCIENCE INC., priority 2020, published 2024).
“Also recorded” adds a separate entry of the source.

Legend:
Type in all cases: cell-based
[1] = test system: Breast cancer cells; experiment: Intracellular acidity (pH) of breast cancer cells at normal or low glucose; conditions: low-carbohydrate state (glucose 5 nM), in combination with paclitaxel (PTX); FIG. 1, FIG. 2
Protocol: Breast cancer cells were cultured at a normal glucose (GLU) concentration of […] or a low concentration of […], and intracellular acidity was confirmed with or without the treatment of paclitaxel (PTX), which is an anticancer drug, and cariporide (CAR), which is a drug that regulates intracellular acidity.

[2] = test system: Breast cancer cells; experiment: Cell viability of breast cancer cells at normal or low glucose; conditions: low-carbohydrate state (glucose 5 nM), in combination with paclitaxel (PTX); FIG. 3
Protocol: Breast cancer cells were cultured at a normal glucose (GLU) concentration of […] or a low concentration of […], and cell viability was confirmed with and without the treatment of paclitaxel (PTX), which is an anticancer drug, and cariporide (CAR) or curcumin (CUR).

[3] = test system: colorectal cancer cells; experiment: Anticancer drug resistance (GR50 ratio) of colorectal cancer cells at high or low glucose; conditions: low glucose (5 nM), in combination with irinotecan; FIG. 4
Protocol: Furthermore, colorectal cancer cells were cultured at a high glucose concentration ([…]) or a low glucose concentration ([…]), and it was confirmed by a growth rate 50 ratio (GR50 ratio) while treating irinotecan, which is an anticancer drug, and cariporide in combination whether the cancer cells had anticancer drug resistance.

Structure (SMILES)	intracellular acidity [1]	anticancer effect (cell viability) [2]	anticancer drug resistance (growth rate 50 ratio, GR50 ratio) [3]	cell viability [3]
CC(C)c1ccc(C(=O)NC(=N)N)cc1S(C)(=O)=O [cariporide]	maintained normal pH; also recorded: closest to normal	best anticancer effect	overcome anticancer drug resistance	significantly reduce cell viability
COc1cc(/C=C/C(=O)CC(=O)/C=C/c2ccc(O)c(OC)c2)ccc1O [curcumin]	same effect as cariporide; also recorded: closest to normal	best anticancer effect		
